In US20250059139A1, “COMPOUNDS FOR TREATMENT OF CANCER” (THE JOHNS HOPKINS UNIVERSITY, priority 2021, published 2025):
Read-outs that look alike come from different tables or passages of the source.

Columns and labels:
[1] = molecular target: T1, Human Aryl Hydrocarbon Receptor (AHR) (Homo sapiens, UniProt P35869); experiment: Human AHR reporter assay (cell-based  luciferase reporter gene assay)
T1 construct: purchased Indigo Biosciences IB06001
T1 sequence (P35869 11-848): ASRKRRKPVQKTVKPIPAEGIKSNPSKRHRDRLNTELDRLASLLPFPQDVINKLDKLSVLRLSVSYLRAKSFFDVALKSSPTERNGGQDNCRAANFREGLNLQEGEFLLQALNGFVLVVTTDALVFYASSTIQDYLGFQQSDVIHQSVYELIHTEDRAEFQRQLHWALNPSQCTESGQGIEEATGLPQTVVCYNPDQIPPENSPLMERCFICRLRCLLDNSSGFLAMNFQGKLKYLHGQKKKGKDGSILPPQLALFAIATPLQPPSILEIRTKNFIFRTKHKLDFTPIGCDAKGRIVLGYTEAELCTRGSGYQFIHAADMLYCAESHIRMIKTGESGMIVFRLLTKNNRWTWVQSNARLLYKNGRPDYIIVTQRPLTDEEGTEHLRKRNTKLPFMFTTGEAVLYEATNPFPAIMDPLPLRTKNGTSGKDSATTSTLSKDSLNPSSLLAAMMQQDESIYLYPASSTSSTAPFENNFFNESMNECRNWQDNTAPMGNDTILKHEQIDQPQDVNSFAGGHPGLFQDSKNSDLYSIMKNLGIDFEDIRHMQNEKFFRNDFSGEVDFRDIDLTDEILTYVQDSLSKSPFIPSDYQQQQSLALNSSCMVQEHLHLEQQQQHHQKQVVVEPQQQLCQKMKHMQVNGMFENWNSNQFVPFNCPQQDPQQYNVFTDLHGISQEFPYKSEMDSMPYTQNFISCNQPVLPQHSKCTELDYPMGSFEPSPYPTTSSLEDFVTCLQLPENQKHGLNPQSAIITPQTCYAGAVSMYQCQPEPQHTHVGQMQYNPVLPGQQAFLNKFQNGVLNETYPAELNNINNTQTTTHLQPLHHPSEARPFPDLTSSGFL
Description: AHR Agonist Assay. Human Aryl Hydrocarbon Receptor (AHR) Reporter Assay System [Indigo Biosciences (State College, Pa) Cat #IB06001] was used as per the manufacturer's protocol.
Thus, a series of quinoline-3-carboxamide analogs were synthesized focusing upon adduct changes at the aniline-N. These analogs were synthesized as described in Example 1, and were initially screened for their AHR agonist activity using the in vitro human cell-based ARE-driven luciferase reporter gene assay (Table 3).

[2] = test system: AHR protein in LNCaP cells; experiment: AHR translocation and downregulation in LNCaP cells (immunoblot); format: cell-based, human; details: TasQ 10 μM
Experimental: Western Blot Analysis. Analysis and quantification of protein expression via immunoblot was performed as previously described (Brennen 2021). All assays were performed with total cell lysates from an equal number (i.e., 100,000) of cells loaded per lane for accurate comparisons across cell lines and conditions.

[3] = test system: LNCaP and LNCaP/AHR-KD xenografts; experiment: In vivo growth of LNCaP vs. LNCaP/AHR-KD xenografts in intact male hosts; design: species or system human; details: daily oral 10 mg/kg/d from day 53 post-inoculation
Description: Prostate Cancer Models. The source, history, and characteristics of the human prostate cancer cell lines and PDXs used, as well as cell culture conditions for their in vitro maintenance and the in vivo protocol for xenograft growth in triple immune-deficient NSG (i.e. NOD.Cg-PrkdcScidIl2rgtmlWji/Szj), adult (>8 week old) male mice obtained from the Sidney Kimmel Comprehensive Cancer Center (SKCCC) Animal Core Facility are described previously (Isaacs 2013; Brennen et al. JCI Insight. 2021, 6(8):e146827; Zhu et al. Oncogene 2020, 39(45): 6935-6949). […] In vitro growth curves were determined as described (Isaacs 2013). In vivo growth response to oral daily TasQ (10 mg/kg/d) of TRAMP-C2 mouse prostate cancers was evaluated in C57BL/6J syngeneic wild type vs. NOX-2 vs. iNOS null male mice obtained from Jackson Laboratory (Bar Harbor, ME). Growth response to oral daily TasQ (10 mg/kg/d) of TRAMP-C2 and B6CaP mouse prostate cancers was also evaluated in S100A9 null C57BL′6J male mice obtained from Dmitry Gabrilovich (Wistar Institute). […] In vitro growth curves were determined as described (Isaacs 2013). Growth response to daily oral TasQ vs. ESATA-20 (both at 10 mg/kg/d) of Myc-CaP-CR mouse prostate cancer was evaluated in syngeneic FVB/NJ castrate male mice from Jackson Laboratory. […]

SMILES | EC50 ([1]; luciferase reporter gene assay, read-out: AHR agonist EC50) [nM] | EC50 ([1]; n = 4 independent assays/analog, read-out: AHR Agonist Response [EC50] (nM +/−SD)) [nM] | time to downregulation of the AHR protein [2] [h] | growth response of LNCaP and LNCaP/AHR-KD xenografts [3]
COc1cccc2c1c(O)c(C(=O)N(c1ccc(C(F)(F)F)cc1)C1CCCCC1)c(=O)n2C [ESATA-20] | 10000 | 10200 |  | 
COc1cccc2c1c(O)c(C(=O)N(C)c1ccc(C(F)(F)F)cc1)c(=O)n2C [TasQ, Tasquinimod] |  |  | 2 to 4 | equally inhibited
